Results: article PMC9032570, “Flavonoids and Phenols, the Potential Anti-Diabetic Compounds from Bauhinia strychnifolia Craib. Stem” (Molecules, 2022)
In brackets after ≈: the same amount, converted by molar mass. Where two headings read alike, the source gives them in different places.

Assays:
α-glucosidase = molecular target: α-glucosidase; set-up: method as in earlier work; conditions: known active flavonoids from B. strychnifolia stem; cited from earlier work
[1] = molecular target: T1, dipeptidyl peptidase-IV (DPP-IV) from porcine kidney (Sus scrofa, UniProt P22411); experiment: Dipeptidyl peptidase-IV (DPP-IV) inhibitory assay (GP-p-NA substrate); type: biochemical
T1 construct: purchased Sigma Aldrich Inc. (St. Louis, MO. USA); host or cells: porcine kidney (tissue-derived enzyme)
T1 sequence (P22411 whole entry): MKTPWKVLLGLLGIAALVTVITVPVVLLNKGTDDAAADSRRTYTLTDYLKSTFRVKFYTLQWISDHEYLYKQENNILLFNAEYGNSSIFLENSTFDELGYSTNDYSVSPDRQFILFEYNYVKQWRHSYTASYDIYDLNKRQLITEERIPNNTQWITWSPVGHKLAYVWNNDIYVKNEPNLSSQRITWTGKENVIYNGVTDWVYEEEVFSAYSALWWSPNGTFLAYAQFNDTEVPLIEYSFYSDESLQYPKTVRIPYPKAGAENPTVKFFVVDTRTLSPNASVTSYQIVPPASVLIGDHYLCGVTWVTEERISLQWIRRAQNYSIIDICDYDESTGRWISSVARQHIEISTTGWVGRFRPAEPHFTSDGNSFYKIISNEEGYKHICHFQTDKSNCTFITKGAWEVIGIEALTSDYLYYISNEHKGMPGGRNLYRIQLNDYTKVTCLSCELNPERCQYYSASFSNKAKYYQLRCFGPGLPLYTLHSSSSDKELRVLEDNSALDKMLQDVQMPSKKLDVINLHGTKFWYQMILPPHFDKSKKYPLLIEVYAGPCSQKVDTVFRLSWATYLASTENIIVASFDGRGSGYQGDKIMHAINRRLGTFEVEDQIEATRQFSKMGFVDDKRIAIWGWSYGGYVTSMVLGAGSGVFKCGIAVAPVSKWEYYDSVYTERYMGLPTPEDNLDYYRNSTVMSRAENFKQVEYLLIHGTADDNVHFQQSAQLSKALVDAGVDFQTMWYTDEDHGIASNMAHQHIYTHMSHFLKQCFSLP
From the text: (§1) Folin–Ciocalteu reagent was bought from Merck (Darmstadt, Germany). Fetal bovine serum (FBS), penicillin-streptomycin, Dulbecco’s Modified Eagle Medium, high glucose (DMEM, high glucose), Roswell Park Memorial Institute (RPMI) 1640 medium, trypsin-EDTA, trypan blue dyes, and 3-(4,5-dimethylthiazol-2-yl)-2,5 diphenyltetrazolium bromide (MTT) were obtained from Thermo Fisher Scientific (Waltham, CA, USA). Ethanol, methanol, hexane, dichloromethane, ethyl acetate, and acetone (as analytical grades) were purchased from Labscan Asia Co., Bangkok, Thailand.
The DPP-IV inhibition activities of crude extract, partitioned fractions, and isolated pure compounds were investigated, following the procedure of Van et al. (2009) and Al-Masri et al. (2009), with some modifications. Concisely, 40 µL of each sample diluted in 50 mM Tris-HCl buffer, pH 8.0 (at final concentration 50 ug/mL), was pre-incubated with 30 µL of 0.05 U/mL of DPP-IV enzyme at 37 °C. After 10 min, 100 µL of 0.2 mM GP-p-NA substrate was added to the solution and further incubated for 30 min. Then, the reaction was terminated with 30 µL of 25% acetic acid, and the absorbance at 405 nm was suddenly measured by a microplate reader (DTX880 Multimode Detector, Beckman Coulter®, Wein, Austria). The percentage of inhibition was calculated, following the formula: [(Acontrol − Asample)/Acontrol] × 100, where Acontrol and Asample were the absorbances of reaction with and without sample, respectively. Diprotin A was employed as a positive control, and the results were presented as the IC50 value.

[2] = system: LPS-induced raw 264.7 cells; experiment: Nitric oxide production in LPS-induced raw 264.7 cells (Griess assay); type: cell-based, murine; conditions: 200 ng/mL LPS, 24 h, Figure 5
Description: The investigation of the inhibitory activities against LPS induced nitric oxide (NO) production of crude extract, partitioned fractions, and isolated compounds by Griess assay, which was accomplished as described by Kaewdana et al.. Briefly, Raw264.7 cells were seeded, at the density of 1 × 10^5 cells/well, in 96-well plates. After 1–2 h culture, the medium was changed and co-treated with different concentrations of samples and 200 ng/mL LPS for 24 h. After that, the nitrite-containing medium was equally mixed with the Griess reagent (1% sulfanilamide in 5% phosphoric acid and 0.1% naphthyl ethylenediamine dihydrochloride (NED) in water) and measured by a microplate reader at 570 nm. Indomethacin (a nonsteroidal anti-inflammatory drug) was used as a positive control. Results were shown as the percentage of inhibition calculated, following the equation: [(Acontrol − Asample)/Acontrol] × 100.

[3] = molecular target: T2, α-glucosidase from Saccharomyces cerevisiae (Saccharomyces cerevisiae, UniProt P53341); experiment: α-Glucosidase inhibitory assay (pNPG substrate); type: biochemical; conditions: for IC50: IC50 α-Glucosidase
T2 construct: purchased Sigma Aldrich Inc. (St. Louis, MO. USA)
T2 sequence (P53341 whole entry): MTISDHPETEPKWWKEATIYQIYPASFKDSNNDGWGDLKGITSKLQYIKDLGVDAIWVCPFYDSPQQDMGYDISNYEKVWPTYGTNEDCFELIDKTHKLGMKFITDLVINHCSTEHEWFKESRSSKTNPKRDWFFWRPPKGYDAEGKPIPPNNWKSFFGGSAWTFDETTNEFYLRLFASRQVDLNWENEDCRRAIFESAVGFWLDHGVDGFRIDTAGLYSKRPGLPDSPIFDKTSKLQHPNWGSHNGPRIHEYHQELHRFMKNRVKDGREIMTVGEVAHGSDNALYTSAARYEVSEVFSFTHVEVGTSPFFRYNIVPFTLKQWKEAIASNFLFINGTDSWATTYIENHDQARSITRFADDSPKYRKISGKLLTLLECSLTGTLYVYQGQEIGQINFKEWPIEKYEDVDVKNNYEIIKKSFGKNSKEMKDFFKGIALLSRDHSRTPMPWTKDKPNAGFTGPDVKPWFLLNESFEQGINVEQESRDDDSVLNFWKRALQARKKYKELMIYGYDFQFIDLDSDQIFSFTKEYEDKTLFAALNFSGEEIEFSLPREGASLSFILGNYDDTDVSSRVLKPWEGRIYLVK
From the text: as §1
The inhibitory effects against α-glucosidase enzyme of crude extract, partitioned fractions, and all isolated pure compounds were examined according to previous assay. In brief, 50 µL of each sample in 50 mM phosphate buffer, pH 6.9 (at various concentrations), was pre-mixed with 50 µL of 0.57 U/mL α-glucosidase enzyme for 10 min at 37 °C. Then, 50 µL of 5 mM pNPG substrate was added into the mixture and further incubated for 30 min, after that stopping the reaction by 50 µL of 1 M sodium carbonate solution (Na2CO3). A microplate reader (DTX880 Multimode Detector, Beckman Coulter®, Wien, Austria) immediately measured the absorbance at 405 nm. The following equation calculated the percentage of inhibition: [(Acontrol − Asample)/Acontrol] × 100, where Acontrol and Asample were the absorbance of reaction without and with the sample, respectively.

3T3-L1 adipocytes = experiment: Glucose uptake assay in differentiated 3T3-L1 adipocytes (GO kit); type: cell-based, mouse; conditions: for glucose uptake stimulation: positive control
Description: The 3T3-L1 pre-adipocytes were induced to differentiate into adult adipocytes after 48 h of confluence in 48 wells plate. The cells were incubated with cultured media, comprising of 1 µg/mL insulin, 10 µM dexamethasone, and 0.5 mM IBMX. After 48 h of incubation, differentiate media were removed and replaced with cultured media containing 1 µg/mL insulin. Then, the maintained media were changed every two days for eight days.
The glucose uptake stimulatory effect of crude extract, partitioned fractions, and isolated compounds was determined by the previously described method [60]. Briefly, differentiated adipocytes were grown in 48-well plates, with cultured media containing 2% FBS, for 18 h. Then, the cells were washed and treated with various concentrations of samples in a complete low glucose medium. After 24 h of incubation, the treated medium of samples was individually transferred into 96-well plates and mixed with the reagent of the GO kit at 37 °C for 30 min. The reaction was terminated by 6M H2SO4, and the absorbance of remaining glucose at 540 nm was recorded by a microplate reader. The ability to enhance glucose uptake was measured by the amount of glucose in the media. The percentage of glucose uptake stimulation was calculated by following equation: %stimulation = [(Acontrol − Asample)/Acontrol] × 100, where Acontrol and Asample were the absorbances of reaction with and without sample, respectively.

[4] = molar value, in parentheses in Table 3

Compound | IC50 [1] [µM] | IC50 [1, 4] [µM] | effect on NO production (in words) [2] | other results
C[C@@H]1O[C@@H](Oc2coc3cc(O)cc(O)c3c2=O)[C@H](O)[C@H](O)[C@H]1O [3,5,7-Trihydroxychromone-3-O-α-L-rhamnopyranoside] |  |  |  | IC50 α-glucosidase inhibitory effect (α-glucosidase): 540 µg/mL (≈ 1590 µM)
Oc1cc(O)c2c(c1)O[C@H](c1ccc(O)c(O)c1)[C@H](O)C2 [Epicatechin] | > 50 | > 50 | inhibitory effect on NO production at only high concentrations | α-glucosidase inhibitory ability (in words) [3]: no effect
O=C(O)c1cc(O)c(O)c(O)c1 [Gallic acid] | > 50 | > 50 | inhibitory effect on NO production at only high concentrations | α-glucosidase inhibitory ability (in words) [3]: no effect; IC50 [3]: > 25 µM; IC50 [3, 4]: > 25 µM
COc1ccc2c(c1)c(CC(=O)O)c(C)n2C(=O)c1ccc(Cl)cc1 [Indomethacin, indomethacin, reference compound] |  |  | potent anti-inflammatory | 
O=c1c(O)c(-c2ccc(O)c(O)c2)oc2cc(O)cc(O)c12 [Quercetin] | 8.24 | 8.25 | no effect | glucose uptake stimulation effect (in words) (3T3-L1 adipocytes; Figure 4): higher glucose uptake stimulation effect than resveratrol, gallic acid, and epicatechin
Oc1ccc(/C=C/c2cc(O)cc(O)c2)cc1 [Resveratrol] | 14.1 | 14.1 | inhibitory effect on NO production at only high concentrations | 
CN(C)C(=N)N=C(N)N [metformin, reference compound] |  |  |  | glucose uptake stimulation (3T3-L1 adipocytes; 2 mM): 85.34%
insulin |  |  |  | glucose uptake stimulation (3T3-L1 adipocytes; 100 nM): 92.81%
